Test results published in US20020182587A1, “Methods and compositions for the treatment and prevention of smooth muscle cell proliferation” (priority 2001, published 2002).

What was measured:
[1] = tested on: neointima formation following balloon catheter-induced injury of the common carotid arteries; assay: Neointima formation after balloon catheter-induced injury of the common carotid arteries; format: in vivo, male Wistar rats
Experimental: Two of test compounds discovered using the methods of the present invention, particularly shown in Example VI, compositions RUS 3052 and RUS 3108, were evaluated for efficacy in the reduction of neointima formation following balloon catheter-induced injury of the common carotid arteries of male Wistar rats. Thirty-two rats were divided into groups of eight animals per group: two test compound groups and two control groups. The two control groups were the positive control, 5 mg/kg probucol, and the negative control, the vehicle for the test compositions and the positive control probucol. […] The vehicle solution was 10% DMSO, 10% cremophor, 20% propylene glycol in water for injection. Test compositions RUS 3052 and RUS 3108 were initially administered at 5 mg/kg up to and including the day of surgery. Starting the day after surgery, until the end of the study, the dosage of all compositions was lowered to 1 mg/kg. The test compositions were prepared by combining 5 mg of the test compound or control with 100 μl DMSO, 100 μl cremophor EL, and 200 μl propylene glycol with intermittent mixing using a cyclomixer. Water for injection was added in 100 μl aliquots to give a final volume of 1 ml.
The test compositions and controls were administered daily by intraperitoneal injection starting 72 hours prior to the surgical procedure and continued until necropsy, 14 days after the procedure. One animal from each of the four groups underwent the surgical procedure each day using a #2F Fogarty embolectomy catheter. An embolectomy catheter was introduced into the right external carotid artery and retrogradely passed to the aortic arch through the common carotid artery. The balloon was inflated with sterile saline and then pulled to the common carotid-external carotid bifurcation. […]
Fourteen days post-surgery, the animals of Example VII were euthanized and the damaged right carotid arteries were collected, sectioned and stained with modified elastin-trichrome, and then analyzed for neointima formation that was quantified by histomorphometric analysis. […]

human aortic SMC = assay: (3H)thymidine DNA synthesis / proliferation of sub-confluent SMC; format: cell-based; conditions: purified perlecan added to 10% serum-containing medium, 24 h
Experimental: Smooth muscle cells reach quiescence during serum starvation resulting in a blockade of DNA synthesis. […] The cells used in this Example and the other examples herein were human aortic SMC, grown in basal medium supplemented with growth factors, bFGF and epidermal growth factor (EGF) (Clonetics, San Diego, Calif.).
The addition of perlecan to serum-containing medium inhibited SMC growth by 70% (FIG. 2). Sub-confluent SMC (40-50% confluence) were incubated in serum-free medium or 10% serum-containing medium with or without purified perlecan for 24 h. DNA synthesis was then determined by incubating cells for another 5 h in medium containing (^3H)thymidine. TCA precipitable (DNA) thymidine counts were determined and expressed as percentage of DNA synthesis in cells grown in 10%FBS.
Perlecan, induced in serum-free conditions, was required for the blockade of DNA synthesis observed in serum-free conditions. The anti-perlecan antibody of Example I was used to block perlecan. Sub-confluent levels of SMC (40-50% confluence) were incubated in serum-free medium containing 0, 5, 10 and 20 μg of mouse IgG or anti-perlecan IgG for 24 hours. DNA synthesis was then determined by incubating cells for another 5 hours in medium containing (^3H)thymidine. TCA precipitable (DNA) (^3H)thymidine counts were determined and expressed as percentage of DNA synthesis in cells grown in 10% FBS. […]

| Compound | IA/MA Average ± STD (n), Based on Section Averages ([1]; rat, i.p. daily, 5 mg/kg up to surgery then 1 mg/kg, 14 days post-surgery, all sections within group) | IA/MA Average ± STD (n), Based on Animal Averages ([1]; rat, i.p. daily, 5 mg/kg up to surgery then 1 mg/kg, 14 days post-surgery, sections with IA/MA > 0.0915) | reduction of neointima formation in comparison to the negative control group ([1]; significance set at p<0.20) | inhibition of SMC growth (DNA synthesis, percentage of cells grown in 10% FBS) (human aortic SMC) [%] |
| --- | --- | --- | --- | --- |
| CC(C)(Sc1cc(C(C)(C)C)c(O)c(C(C)(C)C)c1)Sc1cc(C(C)(C)C)c(O)c(C(C)(C)C)c1 [Probucol, probucol] | 0.71 ± 0.30 (9) | 0.65 ± 0.25 (3) | effective in significantly reducing neointima formation |  |
| perlecan |  |  |  | 70 |
